Earlier results as cited in patent US6589787B2, “T-type calcium channel variants; compositions thereof; and uses” (Syntex (U.S.A.) LLC, priority 1998, dated 2003).

Tested on: T-type Ca^2+ current
Details: freshly dissected neurons from dorsal root ganglia (DRG neurons) of adult rats

CCC1(C)CC(=O)NC1=O (stereo not shown) [ethosuximide]
block of T-type Ca^2+ current: fully block
